Literature values in article PMC7687576 (In Vitro Cellular & Developmental Biology. Animal, 2020).

How the values were obtained:
CYP3A4 [1] = conditions: EpiIntestinal tissues; ref Cui et al. [2020]
CYP3A4 [2] = conditions: Caco-2 cultures; ref Cui et al. [2020]
EpiIntestinal tissues = conditions: IL-6 5–20 ng/mL for 72 h; ref Simon et al. [2019]

Row | Compound | amount of 1-hydroxymidazolam (CYP3A4-selective metabolite) detected (CYP3A4 [1]) | amount of 1-hydroxymidazolam metabolite detected (CYP3A4 [2]) | decrease in CYP450 activity level (EpiIntestinal tissues) | reduction of CYP450 mRNA expression (CYP2C19, CYP2C9, CYP3A4) (EpiIntestinal tissues)
1 | Cc1ncc2n1-c1ccc(Cl)cc1C(c1ccccc1F)=NC2 [Midazolam] | substantial amount | negligible amount | – | –
2 | IL-6: pro-inflammatory cytokine IL-6 | – | – | 20–75% | 40–50%
